Data on one compound can be found in US20010036929A1, “Xrcc3 is required for assembly of Rad51-complexes in vivo” (ARCH Development Corporation., priority 1998, published 2001).

One assay concerns XRCC3+ tumors. The experiment in a line: Mouse xenograft tumor model, XRCC3+ tumors, intratumoral cisplatin. Type of assay: in vivo. To be noted: XRCC3+ tumors in nude mice; 0.1 ml 100 μg/ml cisplatin injected into tumors on days 1-5. The procedure:
(§1) The sensitivity of XRCC3 defective cells to cis-platinum is also reflected in the ability of the drug to cause regression and cure of tumors in a mouse xenograft tumor model. Groups of 12 nude mice were injected in the hind limb with 5X105 XRCC3+ cells or xrcc3− cells. XRCC3+ lines (essentially equivalent to the PXR3 lines described above) and isogenic xrcc3− lines (equivalent to the irs1SF line described above), were injected into nude mice. Tumors were allowed to grow for 2 weeks (volumes of 300-500 mm3). On days 1-5 tumors were injected with 0.1 ml 100 μg/ml cisplatin in PBS or with the same volume of PBS alone. […] Tumor volumes were measured at 3-5 day intervals starting on the first day of treatment. Fractional tumor volumes were calculated as the volume of the tumor on a particular day divided by the volume of the tumor on the day of the first treatment. The fractional tumor volumes in mice injected with XRCC3+ positive cells increased regardless of whether they received cisplatin treatment or the control treatment; the final fractional tumor volume for both the treated and untreated groups was about 5 on average. […] Fractional tumor volume was about 5 on average for the untreated cells and about 0.05 on average for the tumors treated with cisplatin.

A further assay concerns CHO cells. To be noted: 1 μM cisplatin for 1 hour; cited from earlier work.
In assay [1] the test system is Rad51 foci in CHO irs1SF cells. The experiment in a line: Cisplatin-induced Rad51 focus formation (a-Rad51 immunostaining) in irs1SF cells. Type of assay: cell-based, Chinese hamster. The method, then:
(§2) Cisplatin treatment: For dose response studies, the cultures were washed twice in serum-free medium and then incubated for 1 hour in serum-free medium containing varying concentrations of cisplatin (Bristol Laboratories). After the incubation, the dishes were washed three times in serum-free medium and complete medium was added. Cultures were then placed at 37° C. for 3 hours at which time a single-cell suspension was obtained with trypsin/EDTA and the cells were prepared for immunostaining. For time course studies, cell cultures were washed twice in serum-free medium and incubated for one hour in serum-free medium containing 10 μM cisplatin. After incubation, the cells were washed and incubated in complete medium. At the appropriate times the cells were harvested by trypsin treatment and prepared for immunostaining. Immunostaining: Fixed cells were transferred to slides using a Cytospin 2 (Shandon, Pittsburgh, Pa.) centrifuge. Slides were washed twice in Tris-buffered saline (TBS) and incubated for 15 minutes in TBS 1% bovine serum albumin BSA at room temperature. The wash was removed and anti-Rad51 antibody in TBS 1% BSA was applied. The slides were incubated overnight at 4° C. in a humidified chamber. The slides were washed twice in TBS and secondary antibody (fluorescein-conjugated goat anti-rabbit; Molecular Probes, Inc., Eugene, Oreg.) was applied at a 1:1000 dilution in the dark. […]

Assay [2] has as its system Rad51 foci in CHO AA8 cells. The experiment in a line: Cisplatin-induced Rad51 focus formation (a-Rad51 immunostaining) in AA8 cells. Type of assay: cell-based, Chinese hamster. To be noted: for Induction of Rad51 foci: then 3 hours before fixation. The method, then: as §2, with “dark. The slides were incubated at room temperature in the dark for 1 hour. The slides were washed twice with TBS and stained with DAPI (0.1 μg/ml in TBS) for 5 minutes. The slides were dried and coverslips mounted with Vectashield mounting medium (Vector Laboratories Inc., Burlingame, Calif.). Microscopy: Immunostained samples were examined via standard epifluorescence microscopy using a Ziess Photoscope III through a 100X objective. Digital images were obtained with a CCD camera (Imagepoint, Photometrics Inc., Tucson, Ariz.). A single focal plane was documented for each nucleus. Therefore, the numbers presented are less than the total number of foci per nucleus.” for “dark.”

Assay [3] relates to Rad51 foci in CHO CXR3 cells. The experiment in a line: Cisplatin-induced Rad51 focus formation (a-Rad51 immunostaining) in CXR3 cells. To be noted: foci per nucleus, single focal plane. It counts as cell-based, Chinese hamster. The procedure: as §2
Another assay relates to xrcc3− tumors. The experiment in a line: Mouse xenograft tumor model, xrcc3- tumors, intratumoral cisplatin. It counts as in vivo. To be noted: xrcc3− tumors in nude mice; 0.1 ml 100 μg/ml cisplatin injected into tumors on days 1-5. The method, then:
as §1

Assay [4] relates to Rad51 foci in CHO PXR3 cells. The experiment in a line: Cisplatin-induced Rad51 focus formation (a-Rad51 immunostaining) in PXR3 cells. To be noted: foci per nucleus, single focal plane. It counts as cell-based, Chinese hamster. The method, then:
as §2

With `N.N.[Cl][Pt][Cl]` [cisplatin], the “Final fractional tumor volume (volume on day / volume on day of first treatment), average” value in the assay on XRCC3+ tumors is reported as “about 5”. The Cells that survive in the assay with CHO cells is listed as 50-80%. Further, the “Induction of Rad51 foci by cisplatin treatment” value in assay [1] is listed as “no induction of foci was detected”. Also, the “Induction of Rad51 foci” value in assay [2] (1 μM cisplatin for 1 hour) is reported as “Significant induction of foci”; in assay [2] (10 μM cisplatin for 1 hour) it was “Near maximum induction of foci”. For the same compound, the “Rad51 foci induced by cisplatin treatment” value in assay [2] (AA8 cells, foci per nucleus, single focal plane) is “up to 30 foci”; in assay [3], “up to 30 foci”; in assay [4] it was “up to 30 foci”. Besides, the “Fractional tumor volume (volume on day / volume on day of first treatment), average” value with xrcc3− tumors is listed as “about 0.05”.
